From publication PMC3416781, “Functional Characterizations of Chemosensory Proteins of the Alfalfa Plant Bug Adelphocoris lineolatus Indicate Their Involvement in Host Recognition” (PLoS ONE, 2012)
Where “and” joins values, the source holds several entries; their conditions need not be identical. Equal entries are not always repeated. Where two headings read alike, the source gives them in different places.

Tests used:
AlinCSP3 = AlinCSP3 (Adelphocoris lineolatus, UniProt E7BLG4); assay: biochemical; format: binding
Experimental: (§1) Fluorescence binding assays were performed on an F-380 fluorescence spectrophotometer (Tianjin, China) in a 1 cm light path quartz cuvette. The slit width used for excitation and emission was both 10 nm. The fluorescent probe N-phenyl-1-naphthylamine (1-NPN) was dissolved in methanol with a 1 mM stock solution. 1-NPN was excited at 337 nm and emission spectra were recorded between 390 nm and 530 nm.
(§2) All values reported were obtained from three independent measurements.
(§3) For determining binding constants, the intensity values corresponding to the maximum fluorescence emission were plotted against free ligand concentration. Bound ligand was evaluated from the values of fluorescence intensity assuming the protein was 100% active, with a stoichiometry of 1∶1 protein:ligand at saturation. The curves were linearized using Scatchard Plot.

AlinCSP1 = AlinCSP1 (Adelphocoris lineolatus, UniProt J7EJ71); assay: biochemical; format: binding
Experimental: as §1, §2, §3

AlinCSP2 = AlinCSP2 (Adelphocoris lineolatus, UniProt E7BLG5); assay: biochemical; format: binding
Experimental: as §1, §2, §3

A. lineolatus antennae = assay: Electroantennogram (EAG) recordings; design: species or system Adelphocoris lineolatus; conditions: normalized to 2-octanone; for EAG response, male versus female antennae: Student t-test between sexes; for EAG response in words: male and female adult antennae, 10% (v/v) in paraffin oil, good ligand = more than 50% of 2-octanone response
Excerpt: Electrophysiological (EAG) recordings from each sex of adult individuals were made using Ag-AgCl glass pipette electrodes filled with 3 M KCl solution [69], [70]. The insects were anaesthetized by chilling, the antenna was amputated at the base and the tip of the antenna was cut off. The excised antenna was mounted between the electrodes by one teardrop of Spectra R360 electrically conductive gel (Syntech, Netherlands). The base of the antenna was connected to the reference electrode, while the terminal of tip-cut off antenna was connected to the recording electrode. An air stimulus controller CS-55 (Syntech, Netherlands) was used for air and chemical stimulants delivery with a constant flow of 10 ml/second flowed continuously over the antenna through the open end of the glass tube, which was positioned 1 cm from the antenna.
Twenty microliters of tested chemicals (100 µl/ml, 10% (v/v) dilution in paraffin oil except the hexadecanoic acid dissolved in hexane with 100 µg/ml) were applied to filter paper strips (1.5 cm×4 cm, Whatman No.1), and the solvent was allowed to evaporate for 30 sec before the paper strip was inserted into the glass Pasteur pipette cartridge (10 cm long, Fisher Scientific, Pittsburgh, Pennsylvania, USA). The chemicals were tested randomly, stimulus duration time was 0.5 second and an interval of at least 30 seconds was taken between stimulations for antennal recovery. Chemical odorants used for the EAG recordings are the same as used in the binding assays. […] The paraffin oil (Fluka, Buchs, Switzerland) was used to dissolve the chemicals and treated as control compound [71]. Each chemical was tested against six individual male and female antennae, and each antenna was tested three times. The signals were passed through a high impedance amplifier (CS-05 model, Syntech, the Netherlands), EAG responses were initially measured in millivolts (peak height of depolarization) and then converted to normalized responses by the Syntech EAG 2000 program (Syntech, the Netherlands). Response to the solvent control was subtracted from all normalized response and the normalized EAG responses were expressed as a percentage to the reference compound response. All results are presented as mean (±SE) normalized EAG responses. EAG responses between male and female individuals were compared with the Student t-test using SAS software.

[1] = KD (µM) AlinCSP3, 1-NPN and protein at 2 µM, 50 mM Tris-HCl pH 7.4, KD calculated from IC50, mean of three measurements
[2] = KD (µM) AlinCSP1, 1-NPN and protein at 2 µM, 50 mM Tris-HCl pH 7.4, KD calculated from IC50, mean of three measurements
[3] = KD (µM) AlinCSP2, 1-NPN and protein at 2 µM, 50 mM Tris-HCl pH 7.4, KD calculated from IC50, mean of three measurements
[4] = u.d. = KD not calculated because IC50>50 µM, read-out: KD (µM) AlinCSP3, given as u.d.
[5] = u.d. = KD not calculated because IC50>50 µM, read-out: KD (µM) AlinCSP1, given as u.d.
[6] = 1-NPN and protein at 2 µM, 50 mM Tris-HCl pH 7.4, KD calculated from IC50, mean of three measurements, read-out: KD (µM) AlinCSP2
[7] = 1-NPN and protein at 2 µM, 50 mM Tris-HCl pH 7.4, KD calculated from IC50, mean of three measurements, read-out: KD (µM) AlinCSP1
[8] = u.d. = KD not calculated because IC50>50 µM, read-out: KD (µM) AlinCSP2, given as u.d.
[9] = 1-NPN and protein at 2 µM, 50 mM Tris-HCl pH 7.4, KD calculated from IC50, mean of three measurements, read-out: KD (µM) AlinCSP3
[10] = KD (µM) AlinCSP3, given as u.d., u.d. = KD not calculated because IC50>50 µM
[11] = KD (µM) AlinCSP1, given as u.d., u.d. = KD not calculated because IC50>50 µM
[12] = KD (µM) AlinCSP2, given as u.d., u.d. = KD not calculated because IC50>50 µM

AlinCSP2, sequence (E7BLG5 entry or part of it): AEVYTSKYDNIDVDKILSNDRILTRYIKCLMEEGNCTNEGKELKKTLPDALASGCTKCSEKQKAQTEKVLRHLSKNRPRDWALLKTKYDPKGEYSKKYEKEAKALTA
AlinCSP1, sequence (J7EJ71 entry or part of it): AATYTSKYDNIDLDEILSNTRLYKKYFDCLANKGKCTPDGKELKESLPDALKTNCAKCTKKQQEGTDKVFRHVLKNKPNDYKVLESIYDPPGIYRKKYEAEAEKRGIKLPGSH
AlinCSP3, sequence (E7BLG4 entry or part of it): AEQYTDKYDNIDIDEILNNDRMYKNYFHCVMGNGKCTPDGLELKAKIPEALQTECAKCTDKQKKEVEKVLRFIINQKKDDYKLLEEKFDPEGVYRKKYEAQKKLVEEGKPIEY

C=CC(=O)OCCCC [Butyl acrylate]
Kd (AlinCSP3; [1]): 40.2 ± 2.88 µM
Kd (AlinCSP1; [2]): 38.5 ± 1.69 µM
Kd (AlinCSP2; [3]): 28.1 ± 2.37 µM

CCOC(=O)Cc1ccccc1 [Ethyl phenylacetate]
Kd (AlinCSP3; [1]): 24.4 ± 1.32 µM
Kd (AlinCSP1; [2]): 27.3 ± 2.02 µM
Kd (AlinCSP2; [3]): 25.3 ± 1.98 µM

CCCCCCC(C)O (centres unmarked) [2-Octanol]
Kd (AlinCSP3; [4]): > 50 µM
Kd (AlinCSP1; [5]): > 50 µM
Kd (AlinCSP2; [6]): 39.5 ± 2.11 µM

CCCCCCCCCCC [Undecane]
EAG response, male versus female antennae (A. lineolatus antennae): significantly higher EAG responses from male antennae than from female antennae
Kd (AlinCSP3; [4]): > 50 µM
Kd (AlinCSP1; [7]): 38.4 ± 1.54 µM
Kd (AlinCSP2; [6]): 39.6 ± 2.36 µM

CCCCCCCCCCCC=O [Dodecanal]
Kd (AlinCSP3; [4]): > 50 µM
Kd (AlinCSP1; [5]): > 50 µM
Kd (AlinCSP2; [8]): > 50 µM

CCCCCCC(=O)OCC [Ethyl heptanoate]
Kd (AlinCSP3; [9]): 38.3 µM and 35.3 µM
Kd (AlinCSP1; [7]): 25.3 µM and 43.2 µM
Kd (AlinCSP2; [6]): 45.3 µM and 38.3 µM

CC(C)=CCC/C(C)=C/C=O [Citral]
Kd (AlinCSP3; [10]): > 50 µM
Kd (AlinCSP1; [11]): > 50 µM
Kd (AlinCSP2; [12]): > 50 µM

c1ccc2[nH]ccc2c1 [Indole]
Kd (AlinCSP3; [1]): 24.6 ± 2.16 µM
Kd (AlinCSP1; [2]): 27.1 ± 1.91 µM
Kd (AlinCSP2; [3]): 22.4 ± 2.01 µM

CCCCCCCCCCCCCC [Tetradecane]
Kd (AlinCSP3; [9]): 46.2 ± 2.76 µM
Kd (AlinCSP1; [5]): > 50 µM
Kd (AlinCSP2; [8]): > 50 µM

CCCCCC(C)=O [2-Heptanone]
EAG response, male versus female antennae (A. lineolatus antennae): significantly higher EAG responses from female antennae than from male antennae
Kd (AlinCSP3; [9]): 41.2 ± 2.56 µM
Kd (AlinCSP1; [7]): 42.9 ± 2.89 µM
Kd (AlinCSP2; [8]): > 50 µM

CC1(C)[C@@H]2CC[C@@]1(C)[C@H](O)C2 (racemic) [Isoborneol]
Kd (AlinCSP3; [1]): 28.6 ± 1.68 µM
Kd (AlinCSP1; [2]): 24.2 ± 1.42 µM
Kd (AlinCSP2; [3]): 21.1 ± 2.04 µM

CCCCCCCCCC [decane]
EAG response, male versus female antennae (A. lineolatus antennae): significantly higher EAG responses from female antennae than from male antennae
Kd (AlinCSP3; [9]): 47.2 ± 1.18 µM
Kd (AlinCSP1; [7]): 44.6 ± 0.75 µM
Kd (AlinCSP2; [6]): 46.4 ± 0.82 µM

CCCCC(CC)CO (centres unmarked) [2-Ethyl-1-hexanol]
Kd (AlinCSP3; [4]): > 50 µM
Kd (AlinCSP1; [5]): > 50 µM
Kd (AlinCSP2; [8]): > 50 µM

CCCCCCOC(=O)CCCCC [Hexyl hexanoate]
Kd (AlinCSP3; [9]): 43.8 ± 1.98 µM
Kd (AlinCSP1; [7]): 44.7 ± 2.38 µM
Kd (AlinCSP2; [8]): > 50 µM

CCCCOC(=O)CCC [Butyl butyrate]
Kd (AlinCSP3; [4]): > 50 µM
Kd (AlinCSP1; [5]): > 50 µM
Kd (AlinCSP2; [8]): > 50 µM

CCC/C=C/C=O [(E)-2-Hexen-1-al]
EAG response in words (A. lineolatus antennae): elicited significant antennal responses from both male and female
Kd (AlinCSP3; [1]): 14.5 ± 2.59 µM
Kd (AlinCSP1; [2]): 11.3 ± 1.07 µM
Kd (AlinCSP2; [3]): 13.2 ± 2.05 µM

COC(=O)Cc1ccccc1 [Methyl phenylacetate]
Kd (AlinCSP3; [1]): 22.2 ± 0.87 µM
Kd (AlinCSP1; [2]): 32.1 ± 1.85 µM
Kd (AlinCSP2; [3]): 30.6 ± 1.92 µM

CCCCC=O [Valeraldehyde]
EAG response in words (A. lineolatus antennae): elicited significant antennal responses from both male and female
Kd (AlinCSP3; [9]): 11.2 ± 1.52 µM
Kd (AlinCSP1; [7]): 17.6 ± 2.54 µM
Kd (AlinCSP2; [6]): 13.4 ± 2.41 µM

CCCCCCCCCC(C)O (centres unmarked) [2-Undecanol]
Kd (AlinCSP3; [4]): > 50 µM
Kd (AlinCSP1; [5]): > 50 µM
Kd (AlinCSP2; [8]): > 50 µM

C=CC(C)(O)CCC=C(C)C (centres unmarked) [Linalool]
Kd (AlinCSP3; [10]): > 50 µM
Kd (AlinCSP1; [11]): > 50 µM
Kd (AlinCSP2; [3]): 46.2 ± 2.35 µM

CCCCCCCC(C)=O [2-Nonanone]
Kd (AlinCSP3; [4]): > 50 µM
Kd (AlinCSP1; [5]): > 50 µM
Kd (AlinCSP2; [6]): 42.4 ± 2.21 µM

CCCCCCCCCOC(C)=O [Nonyl acetate]
Kd (AlinCSP3; [9]): 46.5 ± 3.07 µM
Kd (AlinCSP1; [7]): 23.6 ± 1.6 µM
Kd (AlinCSP2; [6]): 29.2 ± 2.19 µM

CCCCC/C=C\CCO [(Z)-3-Nonen-1-ol]
Kd (AlinCSP3; [9]): 25.5 ± 1.67 µM
Kd (AlinCSP1; [7]): 21.5 ± 1.17 µM
Kd (AlinCSP2; [6]): 26.4 ± 1.87 µM

CCCCCCOC(=O)CCC [Hexyl butyrate]
Kd (AlinCSP3; [4]): > 50 µM
Kd (AlinCSP1; [7]): 46.8 ± 1.85 µM
Kd (AlinCSP2; [8]): > 50 µM

CCCCC [Pentane]
Kd (AlinCSP3; [9]): 35.6 ± 2.61 µM
Kd (AlinCSP1; [7]): 42.2 ± 1.95 µM
Kd (AlinCSP2; [6]): 39.5 ± 2.54 µM

CC(C)=CCCC(C)CCO (stereo not drawn) [(-)-β-Citronellol]
Kd (AlinCSP3; [9]): 43.5 ± 0.99 µM
Kd (AlinCSP1; [5]): > 50 µM
Kd (AlinCSP2; [8]): > 50 µM

CCCCCCCCCCCC [Dodecane]
Kd (AlinCSP3; [4]): > 50 µM
Kd (AlinCSP1; [5]): > 50 µM
Kd (AlinCSP2; [8]): > 50 µM

Cc1cccc(C(=O)O)c1C [2,3-Dimethylbenzoic acid]
Kd (AlinCSP3; [4]): > 50 µM
Kd (AlinCSP1; [5]): > 50 µM
Kd (AlinCSP2; [8]): > 50 µM

CCCCCCCCC=O [Nonanal]
Kd (AlinCSP3; [4]): > 50 µM
Kd (AlinCSP1; [7]): 43.6 ± 1.11 µM
Kd (AlinCSP2; [8]): > 50 µM

CCCCCCCCC [Nonane]
Kd (AlinCSP3; [4]): > 50 µM
Kd (AlinCSP1; [5]): > 50 µM
Kd (AlinCSP2; [8]): > 50 µM

CCCCOC(C)=O [Butyl acetate]
Kd (AlinCSP3; [1]): 34.5 ± 2.79 µM
Kd (AlinCSP1; [2]): 26.6 ± 1.87 µM
Kd (AlinCSP2; [3]): 41.2 ± 2.89 µM

CCCCCCCCCC=O [Decanal]
Kd (AlinCSP3; [9]): 42.3 ± 2.76 µM
Kd (AlinCSP1; [5]): > 50 µM
Kd (AlinCSP2; [6]): 45.9 ± 1.71 µM

C=C/C(C)=C\CC=C(C)C [(Z)−ocimene]
Kd (AlinCSP3; [9]): 22.2 ± 1.01 µM
Kd (AlinCSP1; [7]): 28.6 ± 1.71 µM
Kd (AlinCSP2; [6]): 25.1 ± 0.93 µM

CC1=CC=C(C(C)C)CC1 [α-Terpinene]
Kd (AlinCSP3; [1]): 45.5 ± 2.06 µM
Kd (AlinCSP1; [11]): > 50 µM
Kd (AlinCSP2; [12]): > 50 µM

C=CC(C)(O)CCC=C(C)CCC=C(C)C (mixture of isomers) [Nerolidol]
Kd (AlinCSP3; [9]): 22.4 ± 1.33 µM
Kd (AlinCSP1; [7]): 28.1 ± 1.26 µM
Kd (AlinCSP2; [6]): 24.4 ± 1.36 µM

CCCCCCC(C)=O [2-Octanone]
Kd (AlinCSP3; [9]): 39.5 ± 1.91 µM
Kd (AlinCSP1; [5]): > 50 µM
Kd (AlinCSP2; [8]): > 50 µM

C=C(C)[C@H]1CC=C(C)CC1 [Limonene]
Kd (AlinCSP3; [4]): > 50 µM
Kd (AlinCSP1; [5]): > 50 µM
Kd (AlinCSP2; [8]): > 50 µM

(+)-α-Pinene
Kd (AlinCSP3; [9]): 27.2 ± 1.02 µM
Kd (AlinCSP1; [7]): 31.7 ± 0.98 µM
Kd (AlinCSP2; [6]): 30.6 ± 0.71 µM

CCCCCCCCCCCCCCO [Tetradecanol]
Kd (AlinCSP3; [4]): > 50 µM
Kd (AlinCSP1; [5]): > 50 µM
Kd (AlinCSP2; [6]): 35.8 ± 3.01 µM

O=Cc1ccccc1 [Benzaldehyde]
Kd (AlinCSP3; [1]): 24 ± 1.76 µM
Kd (AlinCSP1; [2]): 27.5 ± 1.96 µM
Kd (AlinCSP2; [3]): 28 ± 2.11 µM
